Columns and labels:
PDK1 kinase = biological target: T1, PDK1 kinase (Homo sapiens, UniProt O15530); assay: PDK1 Kinase Alpha Screen Assay; assay type: biochemical; conditions: PDK1 Kinase Alpha Screen Assay; read-out: PDK1 IC50
T1 sequence (O15530 1-556): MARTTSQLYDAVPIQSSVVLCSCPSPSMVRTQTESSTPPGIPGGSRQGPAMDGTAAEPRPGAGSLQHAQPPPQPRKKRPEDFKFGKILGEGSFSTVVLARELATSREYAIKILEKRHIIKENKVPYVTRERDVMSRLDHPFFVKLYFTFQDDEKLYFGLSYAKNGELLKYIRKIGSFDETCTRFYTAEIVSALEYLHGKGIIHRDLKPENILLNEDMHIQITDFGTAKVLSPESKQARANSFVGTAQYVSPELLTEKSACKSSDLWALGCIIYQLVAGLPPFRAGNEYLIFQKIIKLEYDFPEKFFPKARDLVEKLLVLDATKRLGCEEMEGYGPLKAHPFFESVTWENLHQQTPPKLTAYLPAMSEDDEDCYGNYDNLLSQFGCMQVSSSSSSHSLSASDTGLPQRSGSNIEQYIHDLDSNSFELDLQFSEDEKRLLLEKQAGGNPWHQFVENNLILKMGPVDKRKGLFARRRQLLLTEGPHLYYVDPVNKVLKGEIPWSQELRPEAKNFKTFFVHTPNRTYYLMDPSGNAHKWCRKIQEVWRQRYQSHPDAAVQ
How it was run: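 Biotinylated PDK1-4 peptide (50 nM) phosphorylated by PDK1 with 10 uM ATP in pH 7.5 Tris/MgCl2/DTT buffer, 2.5% DMSO, for 3-18 hours. EDTA stop, then AlphaScreen detection with phospho-(Ser/Thr) PKA substrate antibody and protein A/streptavidin beads after overnight room-temperature development.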

PC-3 cells = assay: Cell Proliferation Assay (Cell Titer Glo), PC-3 cell line; assay type: cell-based; conditions: Homo sapiens, PC-3, Cell Proliferation Assay, PC3; read-out: CPEC50 PC3
How it was run: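 PC-3 cells, 1000 cells/well, left to adhere 3-5 h, then exposed for 3 days at 37° C to compounds as 1:3 serial dilutions from 500× DMSO stocks diluted in growth medium. Medium then replaced with fresh medium and viability read by Cell Titer Glo luminescence.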

IC50 (PDK1 kinase)	EC50 (PC-3 cells)	Compound
< 5 µM	< 5 µM	COCCNC(=O)c1ccc(Nc2ncc3cccc(OC4CCNCC4)c3n2)cc1F [Compound 445, 2-fluoro-N-(2-methoxyethyl)-4-(8-(piperidin-4-yloxy)quinazolin-2-ylamino)benzamide]
< 5 µM	5 to 10 µM	O=C(O)c1cc(Nc2ncc3cccc(OC4CCNCC4)c3n2)ccc1N1CCOCC1 [Compound 449, 2-morpholino-5-(8-(piperidin-4-yloxy)quinazolin-2-ylamino)benzoic acid]
< 5 µM	5 to 10 µM	O=C(O)c1cc(Nc2ncc3cccc(OC4CCNCC4)c3n2)cc(C(F)(F)F)c1 [Compound 450]
< 5 µM	< 5 µM	FC(F)(F)c1cc(Br)cc(Nc2ncc3cccc(OC4CCNCC4)c3n2)c1 [Compound 452, N-(3-bromo-5-(trifluoromethyl)phenyl)-8-(piperidin-4-yloxy)quinazolin-2-amine]
< 5 µM	5 to 10 µM	O=C(c1cc(Nc2ncc3cccc(OC4CCNCC4)c3n2)cc(C(F)(F)F)c1)N1CCOCC1 [Compound 454, morpholino(3-(8-(piperidin-4-yloxy)quinazolin-2-ylamino)-5-(trifluoromethyl)phenyl)methanone]
< 5 µM	< 5 µM	O=C(NC1CC1)c1cc(Nc2ncc3cccc(OC4CCNCC4)c3n2)ccc1N1CCOCC1 [Compound 456, N-cyclopropyl-2-morpholino-5-(8-(piperidin-4-yloxy)quinazolin-2-ylamino)benzamide]
< 5 µM	< 5 µM	Fc1cc(Nc2ncc3cccc(OC4CCNCC4)c3n2)ccc1N1CCOCC1 [Compound 457, N-(3-fluoro-4-morpholinophenyl)-8-(piperidin-4-yloxy)quinazolin-2-amine]
< 5 µM	< 5 µM	c1cc(CN2CCOCC2)cc(Nc2ncc3cccc(-c4ccc(NCCN5CCCC5)nc4)c3n2)c1 [Compound 465, N-(3-(morpholinomethyl)phenyl)-8-(6-(2-(pyrrolidin-1-yl)ethylamino)pyridin-3-yl)quinazolin-2-amine]
5 to 10 µM	< 5 µM	CN1CCN(c2ccc(-c3cccc4cnc(Nc5cc(C(=O)N6CCCC6)cc(C(F)(F)F)c5)nc34)cn2)CC1 [Compound 468, (3-(8-(6-(4-methylpiperazin-1-yl)pyridin-3-yl)quinazolin-2-ylamino)-5-(trifluoromethyl)phenyl)(pyrrolidin-1-yl)methanone]
< 5 µM	5 to 10 µM	C#Cc1ccc(OC2CCNCC2)c2nc(Nc3ccc(S(N)(=O)=O)cc3)ncc12 [Compound 469, 4-(5-ethynyl-8-(piperidin-4-yloxy)quinazolin-2-ylamino)benzenesulfonamide]
< 5 µM	< 5 µM	c1cc(OC2CCNCC2)c2nc(Nc3ccc(N4CCOCC4)nc3)ncc2c1 [Compound 470, N-(6-morpholinopyridin-3-yl)-8-(piperidin-4-yloxy)quinazolin-2-amine]
< 5 µM	< 5 µM	Clc1cc(Nc2ncc3cccc(OC4CCNCC4)c3n2)ccc1N1CCOCC1 [Compound 471, N-(3-chloro-4-morpholinophenyl)-8-(piperidin-4-yloxy)quinazolin-2-amine]
< 5 µM	< 5 µM	CN(C)C(=O)c1cc(Nc2ncc3cccc(OC4CCNCC4)c3n2)ccc1F [Compound 473, 2-fluoro-N,N-dimethyl-5-(8-(piperidin-4-yloxy)quinazolin-2-ylamino)benzamide]
< 5 µM	< 5 µM	O=C(NC1CCOCC1)c1cc(Nc2ncc3cccc(OC4CCNCC4)c3n2)ccc1F [Compound 476, 2-fluoro-5-(8-(piperidin-4-yloxy)quinazolin-2-ylamino)-N-(tetrahydro-2H-pyran-4-yl)benzamide]
< 5 µM	< 5 µM	O=C(c1ccc(Nc2ncc3cccc(OC4CCNCC4)c3n2)cc1F)N1CCCC1 [Compound 477, (2-fluoro-4-(8-(piperidin-4-yloxy)quinazolin-2-ylamino)phenyl)(pyrrolidin-1-yl)methanone]

Continued, compound first:

Compound	IC50 (PDK1 kinase)	EC50 (PC-3 cells)
CN(C)C(=O)c1ccc(Nc2ncc3cccc(OC4CCNCC4)c3n2)cc1F [Compound 446, 2-fluoro-N,N-dimethyl-4-(8-(piperidin-4-yloxy)quinazolin-2-ylamino)benzamide]	< 5 µM	< 5 µM
O=C(c1ccc(Nc2ncc3cccc(OC4CCNCC4)c3n2)cc1F)N1CCOCC1 [Compound 447, (2-fluoro-4-(8-(piperidin-4-yloxy)quinazolin-2-ylamino)phenyl)(morpholino)methanone]	< 5 µM	< 5 µM
NC(=O)c1cc(Nc2ncc3cccc(OC4CCNCC4)c3n2)ccc1N1CCOCC1 [Compound 448, 2-morpholino-5-(8-(piperidin-4-yloxy)quinazolin-2-ylamino)benzamide]	< 5 µM	5 to 10 µM
CCOC(=O)c1cc(F)cc(Nc2ncc3cccc(OC4CCNCC4)c3n2)c1 [Compound 451, ethyl 3-fluoro-5-(8-(piperidin-4-yloxy)quinazolin-2-ylamino)benzoate]	< 5 µM	< 5 µM
CC(C)NC(=O)c1cc(Nc2ncc3cccc(OC4CCNCC4)c3n2)cc(C(F)(F)F)c1 [Compound 453, N-isopropyl-3-(8-(piperidin-4-yloxy)quinazolin-2-ylamino)-5-(trifluoromethyl)benzamide]	< 5 µM	< 5 µM
CN(C)C(=O)c1cc(Nc2ncc3cccc(OC4CCNCC4)c3n2)ccc1N1CCOCC1 [Compound 455, N,N-dimethyl-2-morpholino-5-(8-(piperidin-4-yloxy)quinazolin-2-ylamino)benzamide]	< 5 µM	5 to 10 µM
c1cc(OC2CCNCC2)c2nc(Nc3ccc(-c4cnco4)cc3)ncc2c1 [Compound 458, N-(4-(oxazol-5-yl)phenyl)-8-(piperidin-4-yloxy)quinazolin-2-amine]	< 5 µM	< 5 µM
CN1CCN(c2ccc(-c3cccc4cnc(Nc5ccc(N6CCOCC6)c(F)c5)nc34)cc2)CC1 [Compound 459, N-(3-fluoro-4-morpholinophenyl)-8-(4-(4-methylpiperazin-1-yl)phenyl)quinazolin-2-amine]	< 5 µM	< 5 µM
Fc1cc(Nc2ncc3cccc(C4=CCNCC4)c3n2)ccc1N1CCOCC1 [Compound 460, N-(3-fluoro-4-morpholinophenyl)-8-(1,2,3,6-tetrahydropyridin-4-yl)quinazolin-2-amine]	< 5 µM	< 5 µM
CC(C)NC(=O)c1cc(F)cc(Nc2ncc3cccc(OC4CCNCC4)c3n2)c1 [Compound 461, 3-fluoro-N-isopropyl-5-(8-(piperidin-4-yloxy)quinazolin-2-ylamino)benzamide]	< 5 µM	< 5 µM
O=C(c1cc(F)cc(Nc2ncc3cccc(OC4CCNCC4)c3n2)c1)N1CCOCC1 [Compound 462]	< 5 µM	< 5 µM
CN1CCN(C(=O)c2cc(F)cc(Nc3ncc4cccc(OC5CCNCC5)c4n3)c2)CC1 [Compound 463, (3-fluoro-5-(8-(piperidin-4-yloxy)quinazolin-2-ylamino)phenyl)(4-methylpiperazin-1-yl)methanone]	< 5 µM	< 5 µM
Cc1ccc(OC2CCNCC2)c2nc(Nc3ccc(S(N)(=O)=O)cc3)ncc12 [Compound 464, 4-(5-methyl-8-(piperidin-4-yloxy)quinazolin-2-ylamino)benzenesulfonamide]	< 5 µM	5 to 10 µM
CN1CCN(c2ccc(-c3cccc4cnc(Nc5ccc(N6CCOCC6)c(Cl)c5)nc34)cn2)CC1 [Compound 466, N-(3-chloro-4-morpholinophenyl)-8-(6-(4-methylpiperazin-1-yl)pyridin-3-yl)quinazolin-2-amine]	< 5 µM	< 5 µM
CN1CCN(c2ccc(-c3cccc4cnc(Nc5cc(C(=O)O)cc(C(F)(F)F)c5)nc34)cn2)CC1 [Compound 467, 3-(8-(6-(4-methylpiperazin-1-yl)pyridin-3-yl)quinazolin-2-ylamino)-5-(trifluoromethyl)benzoic acid]	< 5 µM	< 5 µM
O=C(O)c1cc(Nc2ncc3cccc(OC4CCNCC4)c3n2)ccc1F [Compound 472, 2-fluoro-5-(8-(piperidin-4-yloxy)quinazolin-2-ylamino)benzoic acid]	< 5 µM	5 to 10 µM
CC(C)NC(=O)c1cc(Nc2ncc3cccc(OC4CCNCC4)c3n2)ccc1F [Compound 474, 2-fluoro-N-isopropyl-5-(8-(piperidin-4-yloxy)quinazolin-2-ylamino)benzamide]	< 5 µM	< 5 µM
O=C(c1cc(Nc2ncc3cccc(OC4CCNCC4)c3n2)ccc1F)N1CCOCC1 [Compound 475, (2-fluoro-5-(8-(piperidin-4-yloxy)quinazolin-2-ylamino)phenyl)(morpholino)methanone]	< 5 µM	5 to 10 µM

— patent publication US7932262B2 (Novartis AG, priority 2006, dated 2011)
